# Measurements reported in patent publication US4076659A, “L-Val^10 -somatostatin and intermediates thereto” (Eli Lilly and Company, priority 1976, dated 1978).
# Bridge positions count the residues as written; N and C are the ends. Peptide text beside a SMILES is read from it.
# Test system: release of growth hormone
# Test: Inhibition of growth hormone release in sodium pentobarbitol-stimulated rats (modified Brazeau method)
# Assay type: in vivo, mature male Spraque-Dawley rats
# Conditions: subcutaneously, sodium pentobarbitol-stimulated GH secretion, vs saline control group
# Description: The product from Example 4 was tested for its activity in inhibiting the release of growth hormone. The procedure which was employed is carried out using mature male Spraque-Dawley rats (Laboratory Supply Company, Indianapolis, Indiana). The test is a modification of the method of P. Brazeau, W. Vale, and R. Guilleman, Endocrinology, 94 184 (1974). In this assay, five groups of eight rats each were employed. First, sodium pentobarbitol was administered to all 40 rats to stimulate growth hormone secretion. One of the groups of eight rats is the control group and received only saline. Two of the groups received somatostatin, one at 2 μg./rat, subcutaneously, and the other at 50 μg./rat, subcutaneously. The other two groups received L-Val^10 -somatostatin, one at 2 μg./rat, subcutaneously and the other at 50 μg./rat, subcutaneously. The degree of inhibition of serum growth hormone concentration then was determined with respect to the control group, and the relative activities of L-Val^10 -somatostatin and somatostatin itself were compared.
compound,measurement,setting,value
CC(C)[C@@H]1NC(=O)[C@H](CCCCN)NC(=O)[C@H](Cc2c[nH]c3ccccc23)NC(=O)[C@H](Cc2ccccc2)NC(=O)[C@H](Cc2ccccc2)NC(=O)[C@H](CC(N)=O)NC(=O)[C@H](CCCCN)NC(=O)[C@@H](NC(=O)CNC(=O)[C@H](C)N)CSSC[C@@H](C(=O)O)NC(=O)[C@H](CO)NC(=O)[C@H]([C@@H](C)O)NC(=O)[C@H](Cc2ccccc2)NC1=O [L-Val^10 -somatostatin] (H-AGCKNFFWKVFTSC-OH; disulfide 3-14),diminished serum growth hormone concentration over control,2 μg./rat,49%
same,diminished serum growth hormone concentration over control (inhibition),50 μg./rat,72%
